According to patent publication US20080031968A1, “Methods for increasing cellular energy expenditure” (priority 2005, published 2008):

Experiments:
BAT of C57BL/6J mice = test: BAT gene expression by microarray and Q-RT-PCR; type: in vivo, mouse; conditions: high fat diet mixed with CA or CDCA for 9 days
Method: For microarray analysis, RNA was isolated from BAT using the RNeasy mini kit (QIAGEN, Courtaboeuf, France). Equal amounts of RNA from mice in each group were pooled (n=3 or 4 mice) and used for cDNA synthesis. After second-strand cDNA synthesis (Life Technologies, Cergy Pontoise, France), in vitro transcription was performed with biotinylated UTP and CTP (Enzo Diagnostics, Farmingdale, N.Y.). Fragmented cRNA samples were hybridized to the Affymetrix MOE430A microarray. The raw data was analyzed using the Microarray Suite Software version 5.0 (MAS5.0, Affymetrix, Santa Clara, Calif.).

humans [1] = conditions: cited from earlier work
[2] = test system: mouse primary hepatocytes; test: Endogenous SREBP-1c and target gene expression in mouse primary hepatocytes; type: cell-based
Method: Hepatocytes were isolated from wild-type male mice 8-10 weeks old. Animals were anesthetized with CO2 and livers were perfused with 40 ml Liver Perfusion Medium (Invitrogen) followed by 30 ml Liver Digestion Medium (Invitrogen), both at a flow rate of 5 ml/min. Isolated hepatocytes were resuspended in DMEM supplemented with 20% (v/v) FCS, 100 units/ml penicillin, and 100 units/ml streptomycin, and placed in plates coated with collagen IV at a density of 1×10^5 cells/cm^2. After a 4-hour incubation at 37° C. in an atmosphere of 5% CO2, the medium was changed to DMEM supplemented with 10% (v/v) FCS, 100 units/ml penicillin, 100 units/ml streptomycin, 0.5 μM dexamethasone (Sigma-Aldrich), and 0.4 μM insulin (Sigma-Aldrich). After 16 hours, the medium was changed into medium supplemented with CDCA and ligands for LXR and RXR. After an additional 18-hour incubation, cells were harvested for RNA isolation.
Total RNA was extracted from frozen tissue samples or cells using the RNeasy kit (QIAGEN, Courtaboeuf, France). cDNA was synthesized from total RNA with the SuperScript First-Strand Synthesis System (Invitrogen) and random hexamer primers. The real-time PCR measurement of individual cDNAs was performed using SYBR green dye to measure duplex DNA formation with the LightCycler System (Roche Diagnostics, Meylan, France). The sequences of the primer sets used are available online at http://www-igbmc.ustrasbg.fr/Departments/Dep_V/Dep_VA/Publi/Paper.html.

humans [3] = conditions: treatment of cholesterol gallstones; cited from earlier work
HSMM [4] = test: cAMP levels in human skeletal muscle myoblasts; type: cell-based; conditions: 1 mM IBMX, 30 minutes
Method: HSMM were obtained from Cambrex (Walkersville, Md.) and were cultured according to the suppliers instructions. […] For the cAMP measurements, cells were preincubated 12 h in Opti-MEM (Life Technologies, Cergy Pontoise, France), supplemented with 1 mM IBMX. Then medium was changed and cells were incubated for another 1 h in Opti-MEM with 1 mM IBMX, after which the medium was replaced for Opti-MEM with 1 mM IBMX and the indicated compounds. After 30 minutes the cells were lysed for cAMP analysis.

mouse SREBP-1c promoter = test: SREBP-1c promoter luciferase reporter assay in McA-RH7777 cells; type: cell-based; conditions: McA-RH7777 rat hepatoma cells, LXRα transfection and/or LXR and RXR agonists
Method: The LXR response elements in pSREBP-1c324-Luc were mutated for promoter analysis using the Quick Change Site-Directed Mutagenesis Kit (Stratagene, La Jolla, Calif., USA).
The rat hepatoma cell line McA-RH7777 was obtained from ATCC (Manassas, Va., USA). […] Transfections were performed in 96-well plates using Lipofectamine 2000 (Invitrogen, Cergy Pontoise, France). Each well contained 64 ng luciferase reporter and 4 ng of β-galactosidase expression plasmid. We transfected 16 ng RXRα, 16 ng LXRα, 16 ng LRH-1, 32 ng SHP expression plasmids, or the corresponding empty expression vectors. After 6 hours of incubation with the DNA-lipofectamine complexes, the transfection medium was exchanged for medium with or without the indicated ligands. Ligands for LXR and RXR were dissolved in ethanol or DMSO and added to the cells in DMEM supplemented with 10% lipoprotein-deficient serum. To suppress SREBP-1c activation by processing, leading to feed-forward induction of SREBP-1c expression, the medium used for the SREBP-1c promoter study was also supplemented with 10 μg/ml cholesterol and 1 μg/ml 25-hydroxycholesterol. Luciferase measurements were normalized to β-galactosidase activity.

HSMM [5] = test: Oxygen consumption and extracellular acidification rate in HSMM; conditions: for cellular oxygen consumption: 48 or 72 hours; for extracellular acidification rate: after 72 hours of treatment
C57BL/6J mice = test: LXR agonist-induced lipogenesis in C57BL/6J mice with or without CA; type: in vivo, mouse; conditions: C57BL/6J mice, chow diet, gavage 30 mg/kg
Method: Male C57BL/6J, KK-Ay, and ob/ob (C57BL/6J background) mice, 6-10 weeks of age, were obtained from Elevage Janvier (Le Genest St. Isle, France), CLEA Japan Inc. (Tokyo, Japan), and The Jackson Laboratory (Bar Harbor, Me., USA), respectively. All mice were maintained in a temperature-controlled (23° C.) facility with a 12-hour light/dark cycle and were given free access to food and water. The study protocols were approved by the institutional review boards. The body weight and food intake were measured every second day. The control and high-fat diet was obtained from UAR (Villemoisson sur Orge, France). […] The mice were fasted 4 hours before harvesting blood for subsequent lipid measurements, and tissues for RNA isolation, lipid measurements, and histology.
Mice were gavaged with the LXR agonist T0901317 or vehicle, and the different diets were continued for one more day, after which the mice were sacrificed.

TGR5 [6] = target: T1, TGR5 (Homo sapiens, UniProt Q8TDU6); test: CHO cells transiently expressing TGR5 and pCRE-Luc; type: cell-based; conditions: different concentrations, almost as much cAMP accumulation as with 10 μM forskolin
T1 construct: expressed in transfected cells
T1 sequence (Q8TDU6 1-330): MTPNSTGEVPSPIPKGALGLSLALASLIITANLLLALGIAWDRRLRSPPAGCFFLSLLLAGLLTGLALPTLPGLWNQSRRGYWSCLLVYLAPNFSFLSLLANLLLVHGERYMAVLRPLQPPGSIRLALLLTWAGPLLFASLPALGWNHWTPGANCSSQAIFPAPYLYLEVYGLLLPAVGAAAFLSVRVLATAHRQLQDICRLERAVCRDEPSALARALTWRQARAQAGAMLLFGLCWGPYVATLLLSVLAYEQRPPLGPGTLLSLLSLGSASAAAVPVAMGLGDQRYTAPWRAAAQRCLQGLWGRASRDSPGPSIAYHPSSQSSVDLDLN
From the text: These two steroids constitute about 2 percent by weight of gum guggul.

TGR5 [7] = target: T1, TGR5; test: cAMP response element (CRE)-luciferase reporter assay with TGR5; type: cell-based; conditions: cells co-transfected with TGR5 expression plasmid and CRE-driven luciferase reporter
From the text: Since a synthetic FXRα agonist was unable to phenocopy the effects of BAs on energy expenditure, we focused our attention on FXRα-independent signaling events stimulated by BAs. […] We used a cAMP response element (CRE)-luciferase reporter assay to confirm that TGR5 is a BA receptor.
We used quantitative RT-PCR to measure the expression of D2 and TGR5 mRNAs in selected mouse tissues.

HSMM [8] = test: D2 activity in human skeletal muscle myoblasts; type: cell-based; conditions: 16 h incubation
Method: HSMM were obtained from Cambrex (Walkersville, Md.) and were cultured according to the suppliers instructions. D2 activity measurements were performed after a 16 h incubation with the indicated compounds. For the cAMP measurements, cells were preincubated 12 h in Opti-MEM (Life Technologies, Cergy Pontoise, France), supplemented with 1 mM IBMX. Then medium was changed and cells were incubated for another 1 h in Opti-MEM with 1 mM IBMX, after which the medium was replaced for Opti-MEM with 1 mM IBMX and the indicated compounds. After 30 minutes the cells were lysed for cAMP analysis.

BAT cells = test: Isolated mouse BAT cells, D2 mRNA, D2 activity and cAMP; type: cell-based
Method: An OGTT was performed in animals that were fasted overnight. Glucose was administered by gavage at a dose of 2 g/kg. An IPITT was done in 4 h fasted animals. Insulin was injected at a dose of 0.75 U/kg. Glucose quantification was done with the Maxi Kit Glucometer 4 (Bayer Diagnostic, Puteaux, France) or Glucose RTU (bioMérieux Inc., Marcy l'Etoile, France). Plasma insulin concentrations were measured using ELISA (Cristal Chem Inc., Downers Grove, Ill.). Nonesterified fatty acids, triglycerides, ketone bodies, BA and total cholesterol were determined by enzymatic assays (Roche, Mannheim, Germany). cAMP was measured using the cAMP-Screen system (Applied Biosystems, Bedford, Mass.).

For `C[C@H](CCC(=O)O)[C@H]1CC[C@H]2[C@@H]3[C@H](O)C[C@@H]4C[C@H](O)CC[C@]4(C)[C@H]3CC[C@]12C` [CDCA, chenodeoxycholic acid], the “genes involved in control of energy expenditure incl. D2 in BAT (microarray)” value (BAT of C57BL/6J mice) is listed as “upregulated”, the hepatotoxicity (humans [1]) is listed as “significant hepatotoxicity” and the LDL cholesterol (humans [1]; decrease in LDL-R activity) is listed as “raise LDL cholesterol”. For the same compound, the “expression of lipogenic target genes of SREBP-1c (SCD-1, AceCS, ME)” value ([2]; RXR and LXR ligands plus CDCA) was “decreased likewise”, the SHP expression ([2]; addition of CDCA) was “increased” and the “endogenous SREBP-1c expression” value ([2]; induced by RXR and LXR ligands, increasing amounts of CDCA, 18-hour incubation) was “decreased dose-dependently”. For the same compound, the hypertriglyceridemia (humans [3]) was “reduce hypertriglyceridemia”, the cAMP levels (HSMM [4]) was “increased cAMP levels in a dose-dependant fashion” and the “increase of SREBP-1c promoter activity” value (mouse SREBP-1c promoter) was “attenuated”.
In the case of `N[C@@H](Cc1cc(I)c(Oc2ccc(O)c(I)c2)c(I)c1)C(=O)O` [T3, 3,5,3′-triiodothyronine], the cellular oxygen consumption (HSMM [5]) is reported as “elevated” and the extracellular acidification rate (HSMM [5]) is reported as “increase”.
For `O=S(=O)(c1ccccc1)N(CC(F)(F)F)c1ccc(C(O)(C(F)(F)F)C(F)(F)F)cc1` [T0901317], the “liver weight and serum TGs” value (C57BL/6J mice) was “induction”.
With `C[C@H](CCC(=O)NCCS(=O)(=O)O)[C@H]1CC[C@H]2[C@@H]3[C@H](O)C[C@@H]4C[C@H](O)CC[C@]4(C)[C@H]3C[C@H](O)[C@]12C` [TCA, taurocholic acid] the reporter activity (TGR5 [6]) was “dramatically increased”, the luciferase expression (TGR5 [7]) was “increased luciferase expression in a dose-dependent manner” and the cellular oxygen consumption (HSMM [5]) was “elevated”. The extracellular acidification rate (HSMM [5]) was “increase”, the D2 activity (HSMM [8]) was “significant and dose dependent induction” and the cAMP levels (BAT cells; BAT cells) was “most effective”. For the same compound, the “D2 mRNA and activity” value (BAT cells; BAT cells from mice fed control or high fat diet) was “dose dependently increased” and the cAMP levels (HSMM [4]) was “increased cAMP levels in a dose-dependant fashion”.
With `C[C@H](CCC(=O)NCCS(=O)(=O)O)[C@H]1CC[C@H]2[C@@H]3[C@H](O)C[C@@H]4C[C@H](O)CC[C@]4(C)[C@H]3CC[C@]12C` [TCDCA, tauroCDCA] the cAMP levels (HSMM [4]) was “did not increase”.
